Laboratory results reported in patent publication US20210346359A1, “Use of CFTR Modulators For Treating Cerebrovascular Conditions” (Qanatpharma AG, priority 2018, published 2021).
“Also recorded” adds a separate entry of the source.

How the values were obtained:
Format in all cases: in vivo, mouse
[1] = system: mice with subarachnoid hemorrhage; test: Modified Garcia neurological score in subarachnoid hemorrhage mice; settings: SAH mice, 2 days post-SAH, maximum score 18, 3 mg/kg daily for 2 days
Procedure: Neurological Function Assessment: Neurological function was assessed utilizing the modified Garcia score, as previously described (6). The neurological assessment consists of 6 domains: spontaneous activity, spontaneous movement of all 4 limbs, forepaw outstretching, climbing, body proprioception and response to vibrissae touch. Two blinded observers conducted the neurological assessment 2 days after SAH. The maximum score is 18, indicative of normal neurological function.

mice with heart failure [2] = test: MRI T2 mapping of cerebral edema in heart failure mice; settings: HF mice, 3 mg/kg daily for 2 days
Procedure: Magnetic resonance imaging-based edema measurement: Edema was assessed by quantitative T2 mapping (12), using a 7 Tesla micro-MRI system (Bruker Corporation Biospec 70/30 USR; Ettlingen, Germany). The T2 mapping acquisition generated quantitative T2 maps in 9 contiguous 2D axial slices, with 1 mm thickness, covering the volume from the fore-brain through to the hind-brain. T2 maps were generated from T2-weighted images at echo times from 12 to 384 ms, using in-line Bruker software, via linear regression of the logarithmically-transformed signal magnitudes and the echo times on a per voxel basis. The T2 values were extracted using MIPAV software, using manually drawn regions-of-interest placed within the fore-, middle- and hind-brain T2 maps.

[3] = Global hemodynamic parameters (CO, TPR, MAP) in heart failure mice; settings: HF mice, 3 mg/kg daily for 2 days
Procedure: As previously described (9-11), echocardiographic measurements were collected with a 30 MHz mechanical sector transducer (Vevo 770; Visual Sonics, Toronto, Canada) in conjunction with the mean arterial pressure (MAP) measurements (Millar SPR-671 micro-tip mouse pressure catheter; Inter V Medical Inc., Montreal, Canada). The aortic flow velocity-time integral (VTI) was measured using pulse wave Doppler just above the aortic root. The aortic cross-sectional area (CSA) was calculated from the aortic root dimension (ARD): CSA=π(ARD/2)2. Stroke volume (SV), CO and TPR were calculated as: SV=CSA×VTI; CO=SV×HR; TPR=MAP/CO.
Myocardial infarction: HF was induced by surgical ligation of the left anterior descending coronary artery (3). Briefly, mice were anaesthetized with isoflurane, intubated with a 20-gauge angiocatheter and ventilated with room air. Under sterile conditions, the thorax and pericardium were opened, and the left anterior descending coronary artery was permanently ligated with 7-0 silk suture (Deknatel: Fall River, USA). In sham-operated controls, the thorax and pericardium were opened, but the left anterior descending coronary artery was not ligated. Following the procedure, the chest was closed and the mice were extubated upon spontaneous respiration. Posterior cerebral arteries (PCAs) were isolated 4-6 weeks post-infarction.

mice with heart failure [4] = test: Golgi stain / Sholl analysis of cortical neuron dendrite morphology in heart failure mice; settings: 3 mg/kg i.p. daily for 2 weeks
From the text: Brains were perfused with heparinized saline via transcardiac perfusion, isolated and processed stained utilizing a commercially available Rapid GolgiStain kit (FD NeuroTechnologies Inc.; Columbia, USA). The kit uses a modified Golgi-Cox staining procedure originally described by Glaser and Van der Loos (24). Briefly, isolated brain tissue samples were immersed in a kit-provided solution containing mercuric chloride, potassium dichromate and potassium chromate in the dark for 8 days; this was followed by a 6-day incubation with tissue protection solution. The brain samples were then washed, embedded in 4% low gelling agarose, sectioned in the coronal plane (150 μm thickness; Campden Instruments 7000 smz-2 vibrating microtome) and mounted onto gelatin-coated glass slides. The staining procedure was then completed using kit-provided developing/staining reagents, according to the manufacturer's instructions. […] We analyzed both the basal and apical dendrite networks of pyramidal cortical neurons from the frontal cortex, using a quantitative approach originally described by Shall (25). We utilized Image J software coupled with the semi-automated Simple Neurite Tracer plugin (both freely available from the NIH) to identify and digitally isolate the dendrite networks of a single cortical neuron from a 200× magnification hyperstack image. The center of the soma was marked with the pointer tool; dendrite morphology was then characterized by Sholl analysis (see https://imagej.net/Sholl_Analysis, version 3.7.4), using 5 μm intervals to a maximal radius of 300 μm. This analysis characterizes dendrite morphology in terms of dendrite intersections (i.e., branching) and dendrite length. For each treatment group, 2-4 neurons per mouse from 4 mice were analyzed under blinded conditions. To assess dendritic spine density (i.e., the number of small protrusions found on dendrites), we imaged 3rd branch order dendritic segments at 100× magnification. Spine density was measured as the number of spines per segment for the following segments: 20-50 μm from soma; 30-60 μm from soma; 50-80 μm from soma; and 60-100 μm from soma). This “sliding measurement” approach permits an assessment of how spine density changes over the length of dendritic branch. For each treatment group, spine density was measured in 2-4 pyramidal cortical neurons (2-4 third order branches per neuron) per mouse from 3-4 mice per group, under blinded conditions.

O=C(Nc1ncc(C(c2ccccc2Cl)N2CCC(O)C2)s1)C1(c2ccc3c(c2)OCO3)CC1 (stereo not shown) [C18, 1-(benzo[d][1,3]dioxol-5-yl)-N-(5-((2-chlorophenyl)(3-hydroxypyrrolidin-1-yl)methyl)thiazol-2-yl)cyclopropanecarboxamide]
Modified Garcia score (neurological function) [1]: comparable to sham-operated mice; also recorded: restores the neurological score to the sham level | cerebral edema (T2 relaxation times) (mice with heart failure [2]): neither HF nor C18 treatment in the context of HF induces evident edema; also recorded: does not induce edema; also recorded: Neither HF nor C18 treatment in HF mice induces an alteration | cardiac injury induced by left anterior descending coronary artery ligation [3]: does not ameliorate | mean arterial pressure (MAP) [3]: no effect | total peripheral resistance (TPR) ([3]; 3 mg/kg): no effect; also recorded: lack of effect | mean apical dendrite length (maximum radius), HF-induced reduction (mice with heart failure [4]): normalized | mean basal dendrite length (maximum radius), HF-induced reduction (mice with heart failure [4]): normalized | apical dendrite branching morphology (Sholl analysis) (mice with heart failure [4]; HF mice, sham vs HF vs HF+C18): No differences | basal dendrite branching morphology (Sholl analysis) (mice with heart failure [4]; HF mice, sham vs HF vs HF+C18): no differences | mean apical dendrite spine density at 60-100 μm from soma, group difference (mice with heart failure [4]; HF mice, sham vs HF vs HF+C18): does not reach statistical significance
